Each structure is given as a SMILES string.

Here are results for 14 molecules from ChEMBL document CHEMBL1938307, “Synthesis, pharmacological evaluation and docking studies of N-(benzo[d]thiazol-2-yl)-2-(piperazin-1-yl)acetamide analogs as COX-2 inhibitors” (Bioorg Med Chem Lett, 2012).

For one series, the system named is Rattus norvegicus. As to the kind of experiment: Antiinflammatory activity in Wistar rat assessed as inhibition of carrageenan-induced paw edema at 30 mg/kg after 2 hrs. The format is functional.
Conditions: not given
(The carrageenan paw model is a standard test of acute inflammation.)
One may read the inhibition in vivo as the relative decrease from the control value, in per cent. As to `O=C(CN1CCN(c2ccccc2)CC1)Nc1nc2ccccc2s1`, the inhibition in vivo at 30 mg/kg turned out to be 23.9%.
The same measure, in the same setting: the figure for `O=C(CN1CCNCC1)Nc1nc2ccccc2s1` is 41.3%.
Take `COc1ccc2sc(NC(=O)CN3CCCNCC3)nc2c1`: the inhibition in vivo at 30 mg/kg worked out at 17.4%.
Same read-out and setting: the figure for `O=C(CN1CCCNCC1)Nc1nc2ccccc2s1` is 8.6%; for `COc1ccc2sc(NC(=O)CN3CCNCC3)nc2c1` it is 2.17%.
The same measure, in the same setting: the same measure for `CS(=O)(=O)c1ccc(C2=C(c3ccccc3)C(=O)OC2)cc1` [ROFECOXIB]: 81%; for `O=C(CN1CCNCC1)Nc1nc2cc([N+](=O)[O-])ccc2s1`: 12.3%; for `O=C(CN1CCCNCC1)Nc1nc2cc([N+](=O)[O-])ccc2s1`: 17.4%.
As for `COc1ccc2sc(NC(=O)CN3CCN(c4ccccc4)CC3)nc2c1`, the inhibition in vivo at 30 mg/kg was found to be 21.7%.
For `O=C(CN1CCN(c2ccccc2)CC1)Nc1nc2cc([N+](=O)[O-])ccc2s1`, the inhibition in vivo at 30 mg/kg was 34.8%.
In the case of `CCN1CCN(CC(=O)Nc2nc3cc([N+](=O)[O-])ccc3s2)CC1`, the inhibition in vivo at 30 mg/kg came to 17.4%.
Consider `COc1ccc2cc([C@H](C)C(=O)O)ccc2c1` [NAPROXEN], for which the inhibition in vivo at 30 mg/kg turned out to be 71.7%.
Still for that read-out and setting: the same measure for `CCN1CCN(CC(=O)Nc2nc3cc(OC)ccc3s2)CC1`: 17.4%; for `CCN1CCN(CC(=O)Nc2nc3ccccc3s2)CC1`: 13%.

A further series deals with Rattus norvegicus. As to the kind of experiment: Ulcerogenic effect in Wistar rat assessed as lesions in stomach area at 90 mg/kg after 6 hrs. The conditions noted are these: in vivo. Format: toxicity, organism-based. Also noted: dose 90 mg/kg.
Turning to `O=C(CN1CCNCC1)Nc1nc2ccccc2s1`, the UI was determined as 1.24.
On the same count and under the same terms, the figure for `O=C(CN1CCN(c2ccccc2)CC1)Nc1nc2cc([N+](=O)[O-])ccc2s1` is 1.21; for `COc1ccc2cc([C@H](C)C(=O)O)ccc2c1` [NAPROXEN] it is 2.5.

In the next series the test system is Rattus norvegicus. As to the kind of experiment: Ulcerogenic effect in Wistar rat assessed as gastric bleeding at 90 mg/kg after 6 hrs. The format is toxicity, organism-based, Stomach. Also noted: dose 90 mg/kg. The conditions noted are these: in vivo.
Take `O=C(CN1CCNCC1)Nc1nc2ccccc2s1`: the UI is given as 1.24.
Same read-out and setting: the figure for `O=C(CN1CCN(c2ccccc2)CC1)Nc1nc2cc([N+](=O)[O-])ccc2s1` is 1.21; for `COc1ccc2cc([C@H](C)C(=O)O)ccc2c1` [NAPROXEN] it is 2.5.
